The values that follow come from ChEMBL document CHEMBL4261609, “Chemistry-driven glycoscience” (Bioorg Med Chem, 2018).

In assay [1] the target is T1, L-selectin (Homo sapiens) (UniProt P14151).
T1 sequence (whole entry): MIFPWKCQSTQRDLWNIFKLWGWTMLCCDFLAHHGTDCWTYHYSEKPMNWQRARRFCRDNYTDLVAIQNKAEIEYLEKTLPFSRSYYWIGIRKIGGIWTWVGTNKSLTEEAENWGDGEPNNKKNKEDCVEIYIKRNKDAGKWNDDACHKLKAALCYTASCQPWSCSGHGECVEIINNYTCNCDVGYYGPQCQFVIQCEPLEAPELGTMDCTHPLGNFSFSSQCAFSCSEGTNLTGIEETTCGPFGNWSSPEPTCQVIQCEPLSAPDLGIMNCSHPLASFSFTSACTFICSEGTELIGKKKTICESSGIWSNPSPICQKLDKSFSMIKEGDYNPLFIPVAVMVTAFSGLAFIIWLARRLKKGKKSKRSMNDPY
Put plainly: Inhibition of human L-selectin transfected in mouse 300.19 cells assessed as decrease in protein-mediated cell rolling on GlyCAM-1 or PNAd preincubated for 5 mins followed by cell perfusion through laminar flow chamber coated with GlyCAM-1 or PNAd relative to control. In kind it is cell-based.

Another assay deals with T2, CD209 antigen (Homo sapiens, UniProt Q9NNX6).
T2 sequence (Q9NNX6 whole entry): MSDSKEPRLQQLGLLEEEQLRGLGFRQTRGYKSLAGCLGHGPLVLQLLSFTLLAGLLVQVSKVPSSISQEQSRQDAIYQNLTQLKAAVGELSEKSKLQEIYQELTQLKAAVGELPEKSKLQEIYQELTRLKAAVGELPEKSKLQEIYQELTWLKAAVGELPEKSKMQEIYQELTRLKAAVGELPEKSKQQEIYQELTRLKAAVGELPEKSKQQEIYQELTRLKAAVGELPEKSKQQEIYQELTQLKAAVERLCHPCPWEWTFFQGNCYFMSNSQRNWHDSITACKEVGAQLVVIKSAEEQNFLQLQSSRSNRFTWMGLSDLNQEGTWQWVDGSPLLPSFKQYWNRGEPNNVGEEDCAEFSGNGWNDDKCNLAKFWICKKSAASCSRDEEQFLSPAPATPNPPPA
Put plainly: Inhibition of DC-SIGN (unknown origin).

Consider `CCCO[C@@H]1O[C@H](COS(=O)(=O)O)[C@@H](O[C@@H]2O[C@H](CO)[C@H](O)[C@H](O[C@]3(C(=O)O)C[C@H](O)[C@@H](NC(C)=O)[C@H]([C@H](O)[C@H](O)CO)O3)[C@H]2O)[C@H](O[C@@H]2O[C@@H](C)[C@@H](O)[C@@H](O)[C@@H]2O)[C@@H]1O`, for which, in assay [1], the fold change (FC) stood at 3.

What is called IC50 is the concentration at which inhibition is half-maximal. For `NC(=O)[C@@H](CCC(=O)O)NC(=O)[C@H]1C[C@@H](O)[C@H](O)[C@H](O)[C@H]1SCCCCSCc1cccc(F)c1`, at CD209 antigen, the IC50 turned out to be 3.2 mM. A word on the Ki: it is a dissociation constant, usually derived from enzyme kinetics or from competition with a known ligand. Lower therefore signals a stronger hold on the target. `CC(=O)N[C@@H]1C(O)O[C@H](CO)[C@@H](O)[C@@H]1O` (some centres undefined) returned a Ki on CD209 antigen of 11 mM. In other words, the millimolar range. In the case of `CCCO[C@@H]1O[C@H](CO)[C@@H](O[C@@H]2O[C@H](CO)[C@H](O)[C@H](O[C@]3(C(=O)O)C[C@H](O)[C@@H](NC(C)=O)[C@H]([C@H](O)[C@H](O)CO)O3)[C@H]2O)[C@H](O[C@@H]2O[C@@H](C)[C@@H](O)[C@@H](O)[C@@H]2O)[C@@H]1O`, the fold change (FC) in assay [1] was 1.
